Measured values reported in US20240165282A1, “CONFORMATIONAL CONSTRAINED SOMATOSTATIN RECEPTOR 3 PEPTIDE LIGANDS AND THEIR CONJUGATES AND USES THEREOF” (STARGET PHARMA LTD., priority 2021, published 2024).
*1 amine or outer side, *2 acyl side, *3 side chain or, on linkers, in order; H or OH if unused. Where a SMILES comes first, the peptide text is derived from it. Bridges are numbered along the chain shown (N, C = ends). [ ]: non-standard residue; d: D form. The star is where a group is joined. DOTA = O=C(O)CN1CCN(CC(=O)O)CCN(CC(=O)*)CCN(CC(=O)O)CC1; N(2-mercaptoethyl)Gly = O=C(CN(CCS[*:3])[*:1])[*:2]

Key:
SSTR5 = SSTR5 (Homo sapiens, UniProt P35346); test: Radioligand binding, displacement of 125I-Tyr11-SRIF-14; parameters: host or cells: Chem-1 (Rat ChemiSCREEN) cells, membrane preparation
Procedure, shortened: (§1)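 Assays ran at 25 °C in 25 mM HEPES pH 7.4 with 5 mM MgCl2, 1 mM CaCl2, 0.1% BSA and 1% DMSO. Filter-bound radioactivity gave IC50 by nonlinear least-squares regression.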

PDE3A (h) = target: T1, PDE3A (h) (Homo sapiens, UniProt Q14432); test: Cerep off-target enzyme inhibition; assay type: biochemical; details: 1 micromolar; Enzymatic; read-out: % Activity: Inhibition of Control Specific Binding
T1 construct: Eurofins Cerep (contract assay)
Description: (§2) In this example, off-target interactions for SEQ ID NO.
(§3) The assays were performed by Eurofins Cerep (Celle 1'Evescault, France). Compound binding was calculated as a % inhibition of the binding of a radioactively labeled ligand specific for each target. Compound enzyme inhibition effect was calculated as a % inhibition of control enzyme activity. In each experiment and if applicable, the respective reference compound was tested concurrently with SEQ ID NO. 3, and the data were compared with historical values determined at Eurofins. The experiment was accepted in accordance with Eurofins validation Standard Operating Procedure. Results showing an inhibition (or stimulation for assays run in basal conditions) higher than 50% are considered to represent significant effects of the test compounds.

Lck kinase (h) = target: T2, Lck kinase (h) (Homo sapiens, UniProt P06239); test: Cerep off-target enzyme inhibition; assay type: biochemical; details: 1 micromolar; Enzymatic; read-out: % Activity: Inhibition of Control Specific Binding
T2 construct: Eurofins Cerep (contract assay)
Description: as §2, §3

COX2(h) = target: T3, COX2(h) (Homo sapiens, UniProt P35354); test: Cerep off-target enzyme inhibition; assay type: biochemical; details: 1 micromolar; Enzymatic; read-out: % Activity: Inhibition of Control Specific Binding
T3 construct: Eurofins Cerep (contract assay)
Description: as §2, §3

PDE4D2 (h) = target: T4, PDE4D2 (h) (Homo sapiens, UniProt Q08499); test: Cerep off-target enzyme inhibition; assay type: biochemical; details: 1 micromolar; Enzymatic; read-out: % Activity: Inhibition of Control Specific Binding
T4 construct: Eurofins Cerep (contract assay)
Description: as §2, §3

acetylcholinesterase (h) = target: T5, acetylcholinesterase (h) (Homo sapiens, UniProt P22303); test: Cerep off-target enzyme inhibition; assay type: biochemical; details: 1 micromolar; Enzymatic; read-out: % Activity: Inhibition of Control Specific Binding
T5 construct: Eurofins Cerep (contract assay)
Description: as §2, §3

COX1(h) = target: T6, COX1(h) (Homo sapiens, UniProt P23219); test: Cerep off-target enzyme inhibition; assay type: biochemical; details: 1 micromolar; Enzymatic; read-out: % Activity: Inhibition of Control Specific Binding
T6 construct: Eurofins Cerep (contract assay)
Description: as §2, §3

[1] = tested on: 44 human cloned GPCRs and GPCR mediated cellular enzymatic activities; test: Eurofins Cerep off-target safety pharmacology panel; assay type: binding; details: 1 micromolar
Description: as §2, §3
Results showing an inhibition (or stimulation) between 25% and 50% are indicative of weak to moderate effects (in most assays, they should be confirmed by further testing as they are within a range where more inter-experimental variability can occur). […]
Low to moderate negative values have no real meaning and are attributable to variability of the signal around the control level. […] The results are expressed as a percent of control specific binding measured specific binding

SSTR2 = SSTR2 (Homo sapiens, UniProt P30874); test: Radioligand binding, displacement of 125I-Tyr11-SRIF-14; parameters: host or cells: CHO (Chinese Hamster Ovary) cells, membrane preparation
Procedure, shortened: as §1

SSTR1 = SSTR1 (Homo sapiens, UniProt P30872); test: as above; parameters: host or cells: CHO (Chinese Hamster Ovary) cells, membrane preparation
Procedure, shortened: as §1

SSTR3 = SSTR3 (Homo sapiens, UniProt P32745); test: as above; parameters: host or cells: CHO (Chinese Hamster Ovary) cells, membrane preparation
Procedure, shortened: as §1

hSSTR-4 = target: T7, hSSTR-4 (Homo sapiens, UniProt P31391); test: as above
T7 construct: host or cells: Chem-1 (Rat ChemiSCREEN) cells, membrane preparation
Procedure, shortened: as §1

NMDA = test: Cerep off-target radioligand binding; parameters: species or system human; details: 1 micromolar; antagonist radioligand
Description: as §2, §3

[2] = tested on: Ca2+ channel (L, dihydropyridine site); test: Cerep off-target radioligand binding; parameters: species or system human; details: 1 micromolar; antagonist radioligand
Description: as §2, §3

Na+ channel (site 2) = test: Cerep off-target radioligand binding; parameters: species or system human; details: 1 micromolar; antagonist radioligand
Description: as §2, §3

AR(h) = test: Cerep off-target radioligand binding; parameters: species or system human; details: 1 micromolar; agonist radioligand
Description: as §2, §3

KV channel = test: Cerep off-target radioligand binding; parameters: species or system human; details: 1 micromolar; antagonist radioligand
Description: as §2, §3

MAO-A = target: T8, MAO-A (Rattus norvegicus, UniProt P21396); test: Cerep off-target radioligand binding; parameters: species or system human; details: 1 micromolar; antagonist radioligand; read-out: % Activity: Inhibition of Control Specific Binding
T8 construct: Eurofins Cerep (assay service)
Description: as §2, §3

BZD (central) = test: Cerep off-target radioligand binding; parameters: species or system human; details: 1 micromolar; agonist radioligand
Description: as §2, §3

Chain of SSTR5 (P35346 whole entry): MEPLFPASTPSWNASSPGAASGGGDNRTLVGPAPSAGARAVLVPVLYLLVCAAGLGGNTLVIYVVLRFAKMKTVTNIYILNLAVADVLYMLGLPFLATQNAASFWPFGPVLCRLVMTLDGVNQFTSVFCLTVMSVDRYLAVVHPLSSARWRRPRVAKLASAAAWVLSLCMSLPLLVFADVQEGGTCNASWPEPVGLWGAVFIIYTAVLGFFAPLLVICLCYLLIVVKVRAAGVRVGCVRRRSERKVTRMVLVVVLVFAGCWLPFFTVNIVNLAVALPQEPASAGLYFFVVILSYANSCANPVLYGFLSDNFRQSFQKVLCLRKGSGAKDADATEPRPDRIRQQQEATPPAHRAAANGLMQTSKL
Chain of SSTR1 (P30872 whole entry): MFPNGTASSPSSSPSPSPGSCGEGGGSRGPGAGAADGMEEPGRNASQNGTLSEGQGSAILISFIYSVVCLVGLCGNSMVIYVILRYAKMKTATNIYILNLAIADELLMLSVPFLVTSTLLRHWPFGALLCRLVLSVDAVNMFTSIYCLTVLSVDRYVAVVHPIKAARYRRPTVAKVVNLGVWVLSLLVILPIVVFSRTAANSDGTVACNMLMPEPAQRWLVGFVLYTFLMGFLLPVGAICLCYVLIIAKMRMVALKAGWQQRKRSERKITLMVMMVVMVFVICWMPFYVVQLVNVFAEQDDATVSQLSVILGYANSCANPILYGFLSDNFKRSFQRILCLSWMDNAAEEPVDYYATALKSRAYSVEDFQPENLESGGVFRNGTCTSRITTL
T7 sequence (P31391 whole entry): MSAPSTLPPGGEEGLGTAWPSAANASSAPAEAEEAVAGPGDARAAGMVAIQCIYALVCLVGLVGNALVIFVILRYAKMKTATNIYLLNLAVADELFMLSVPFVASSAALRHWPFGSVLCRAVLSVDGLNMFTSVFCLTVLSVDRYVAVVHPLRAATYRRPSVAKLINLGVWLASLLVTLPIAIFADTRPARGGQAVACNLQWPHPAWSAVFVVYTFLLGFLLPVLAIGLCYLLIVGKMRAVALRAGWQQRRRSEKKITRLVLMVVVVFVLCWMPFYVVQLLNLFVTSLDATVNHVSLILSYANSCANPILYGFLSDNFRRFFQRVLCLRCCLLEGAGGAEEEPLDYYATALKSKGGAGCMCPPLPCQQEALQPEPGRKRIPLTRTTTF
Chain of SSTR2 (P30874 whole entry): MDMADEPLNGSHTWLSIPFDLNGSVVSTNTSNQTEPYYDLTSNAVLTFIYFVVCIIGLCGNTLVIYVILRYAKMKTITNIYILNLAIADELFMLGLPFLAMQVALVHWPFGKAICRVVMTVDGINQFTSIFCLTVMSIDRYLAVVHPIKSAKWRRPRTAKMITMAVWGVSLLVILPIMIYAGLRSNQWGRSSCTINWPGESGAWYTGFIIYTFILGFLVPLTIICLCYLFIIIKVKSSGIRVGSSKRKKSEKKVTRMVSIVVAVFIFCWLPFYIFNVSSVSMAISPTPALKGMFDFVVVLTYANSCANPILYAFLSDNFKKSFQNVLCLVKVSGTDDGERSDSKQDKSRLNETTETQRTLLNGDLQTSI
Chain of SSTR3 (P32745 whole entry): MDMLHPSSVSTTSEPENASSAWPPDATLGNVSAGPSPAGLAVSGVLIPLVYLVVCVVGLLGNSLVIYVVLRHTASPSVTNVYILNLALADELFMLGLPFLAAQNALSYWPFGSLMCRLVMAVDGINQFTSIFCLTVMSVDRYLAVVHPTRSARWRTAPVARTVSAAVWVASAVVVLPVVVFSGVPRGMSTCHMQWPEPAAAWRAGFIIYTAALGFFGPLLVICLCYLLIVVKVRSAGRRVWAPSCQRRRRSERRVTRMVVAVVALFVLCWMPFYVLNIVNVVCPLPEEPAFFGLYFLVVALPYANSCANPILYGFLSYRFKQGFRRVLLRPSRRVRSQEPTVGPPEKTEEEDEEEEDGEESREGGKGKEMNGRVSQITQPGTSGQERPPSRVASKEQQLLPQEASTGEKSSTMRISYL
T4 sequence (Q08499 303-809): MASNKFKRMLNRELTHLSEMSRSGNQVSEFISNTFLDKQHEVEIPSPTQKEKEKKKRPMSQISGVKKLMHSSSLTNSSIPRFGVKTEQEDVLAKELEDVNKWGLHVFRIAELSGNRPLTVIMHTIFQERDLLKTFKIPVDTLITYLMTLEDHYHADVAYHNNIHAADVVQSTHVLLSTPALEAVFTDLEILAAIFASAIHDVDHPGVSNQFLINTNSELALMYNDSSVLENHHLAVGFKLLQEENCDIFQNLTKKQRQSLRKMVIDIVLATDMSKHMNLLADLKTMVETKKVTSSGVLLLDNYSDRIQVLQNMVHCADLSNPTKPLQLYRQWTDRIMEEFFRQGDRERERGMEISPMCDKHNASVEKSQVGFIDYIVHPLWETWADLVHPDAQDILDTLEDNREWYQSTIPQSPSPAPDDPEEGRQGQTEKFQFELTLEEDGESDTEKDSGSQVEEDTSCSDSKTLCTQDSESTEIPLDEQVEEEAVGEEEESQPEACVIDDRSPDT
T6 sequence (P23219 24-599): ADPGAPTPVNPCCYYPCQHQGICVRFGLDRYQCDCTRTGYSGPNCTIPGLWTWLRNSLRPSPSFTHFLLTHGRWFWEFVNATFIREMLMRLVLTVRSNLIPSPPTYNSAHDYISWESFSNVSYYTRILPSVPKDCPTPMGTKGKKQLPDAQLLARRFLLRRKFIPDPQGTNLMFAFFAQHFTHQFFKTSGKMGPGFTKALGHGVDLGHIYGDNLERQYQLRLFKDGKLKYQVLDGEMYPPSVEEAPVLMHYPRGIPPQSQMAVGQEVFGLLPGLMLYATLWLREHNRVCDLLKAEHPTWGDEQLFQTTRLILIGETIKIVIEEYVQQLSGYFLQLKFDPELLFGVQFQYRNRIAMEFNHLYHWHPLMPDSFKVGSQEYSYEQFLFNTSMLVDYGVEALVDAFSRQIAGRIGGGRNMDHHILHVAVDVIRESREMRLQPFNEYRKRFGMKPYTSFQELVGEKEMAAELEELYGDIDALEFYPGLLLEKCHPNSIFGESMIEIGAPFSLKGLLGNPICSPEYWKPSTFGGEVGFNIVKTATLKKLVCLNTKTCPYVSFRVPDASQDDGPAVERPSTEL
T2 sequence (P06239 whole entry): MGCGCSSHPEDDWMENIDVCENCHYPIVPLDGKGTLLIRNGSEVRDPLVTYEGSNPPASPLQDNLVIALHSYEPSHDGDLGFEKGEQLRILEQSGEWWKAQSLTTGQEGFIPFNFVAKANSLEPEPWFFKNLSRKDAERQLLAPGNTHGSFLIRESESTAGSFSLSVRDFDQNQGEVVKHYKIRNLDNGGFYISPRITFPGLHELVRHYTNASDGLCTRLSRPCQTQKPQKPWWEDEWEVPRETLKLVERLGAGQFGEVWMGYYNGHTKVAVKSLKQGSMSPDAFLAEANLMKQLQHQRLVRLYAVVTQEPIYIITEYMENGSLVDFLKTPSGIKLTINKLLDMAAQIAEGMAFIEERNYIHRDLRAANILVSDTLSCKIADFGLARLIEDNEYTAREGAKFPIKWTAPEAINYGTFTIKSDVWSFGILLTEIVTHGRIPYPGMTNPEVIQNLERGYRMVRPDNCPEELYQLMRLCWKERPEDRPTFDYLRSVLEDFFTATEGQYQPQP
T8 sequence (P21396 whole entry): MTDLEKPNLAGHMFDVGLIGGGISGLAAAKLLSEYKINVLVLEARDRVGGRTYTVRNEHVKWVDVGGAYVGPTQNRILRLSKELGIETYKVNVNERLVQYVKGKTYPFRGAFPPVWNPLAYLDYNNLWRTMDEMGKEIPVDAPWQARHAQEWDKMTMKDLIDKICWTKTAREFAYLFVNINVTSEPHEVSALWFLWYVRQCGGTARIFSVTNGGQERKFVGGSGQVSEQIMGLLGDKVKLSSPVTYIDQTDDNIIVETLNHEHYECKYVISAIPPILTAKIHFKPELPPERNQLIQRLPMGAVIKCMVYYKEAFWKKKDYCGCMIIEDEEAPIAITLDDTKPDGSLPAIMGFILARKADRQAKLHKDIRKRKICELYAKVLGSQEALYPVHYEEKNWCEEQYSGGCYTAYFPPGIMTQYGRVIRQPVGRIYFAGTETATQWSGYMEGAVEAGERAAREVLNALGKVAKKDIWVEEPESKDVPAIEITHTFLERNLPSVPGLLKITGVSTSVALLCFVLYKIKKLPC
T3 sequence (P35354 18-604): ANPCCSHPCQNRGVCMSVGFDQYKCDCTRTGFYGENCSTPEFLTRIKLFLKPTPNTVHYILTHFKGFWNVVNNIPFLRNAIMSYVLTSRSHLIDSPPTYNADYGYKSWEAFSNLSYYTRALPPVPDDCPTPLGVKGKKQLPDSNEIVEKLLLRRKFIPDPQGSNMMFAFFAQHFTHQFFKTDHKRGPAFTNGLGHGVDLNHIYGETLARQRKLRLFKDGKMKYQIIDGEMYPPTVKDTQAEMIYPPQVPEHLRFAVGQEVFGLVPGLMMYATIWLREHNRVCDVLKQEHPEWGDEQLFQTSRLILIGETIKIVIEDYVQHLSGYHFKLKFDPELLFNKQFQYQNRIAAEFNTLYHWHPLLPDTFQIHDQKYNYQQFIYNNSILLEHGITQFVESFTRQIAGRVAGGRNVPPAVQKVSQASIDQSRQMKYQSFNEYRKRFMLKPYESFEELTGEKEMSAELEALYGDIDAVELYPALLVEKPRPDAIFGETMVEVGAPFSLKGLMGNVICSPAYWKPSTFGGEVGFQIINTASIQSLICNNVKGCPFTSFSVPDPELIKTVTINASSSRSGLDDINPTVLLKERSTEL

Structure (SMILES): C[C@@H](O)[C@@H]1NC(=O)[C@H](CCCCN)NC(=O)[C@@H](Cc2c[nH]c3ccccc23)NC(=O)[C@H](Cc2ccccc2)NC(=O)[C@@H](NC(=O)[C@H](CCCNC(=N)N)NC(=O)[C@@H](Cc2ccccc2)NC(=O)CN2CCN(CC(=O)O)CCN(CC(=O)O)CCN(CC(=O)O)CC2)CSSCCN(CC(N)=O)C(=O)[C@H](Cc2ccccc2)NC1=O [SEQ ID NO: 3, DOTA-D-Phe^1-Arg^2-Cys^3-Phe^4-D-Trp^5-Lys^6-Thr^7-Phe^8-NTEG^9-NH2 cyclo 3-9] ({DOTA}-[dF]RCF[dW]KTF[N(2-mercaptoethyl)Gly]-NH2; disulfide 3-9)
- IC50 (SSTR5): > 1 µM
- Ki (SSTR5): 0.66 µM
- Hill coefficient (nH) (SSTR5; hSSTR-5): 1.57
- inhibition at 1 µM (PDE3A (h)): 0%
- inhibition at 1 µM (Lck kinase (h)): -4%
- inhibition at 1 µM (COX2(h)): 18%
- inhibition at 1 µM (PDE4D2 (h)): -2%
- inhibition at 1 µM (acetylcholinesterase (h)): 6%
- inhibition at 1 µM (COX1(h)): 9%
- off-target interactions with opiate receptors [1]: not indicated
- off-target interactions, safety pharmacology panel (in words) [1]: no interaction with human cloned GPCRs of clinical significance
- IC50 (SSTR2): 0.59 µM
- Ki (SSTR2): 0.31 µM
- Hill coefficient (nH) (SSTR2; hSSTR-2): 1.62
- IC50 (SSTR1): 0.31 µM
- Ki (SSTR1): 0.26 µM
- Hill coefficient (nH) (SSTR1; hSSTR-1): 0.86
- IC50 (SSTR3): 0.00083 µM
- Ki (SSTR3): 0.00028 µM
- affinity and selectivity to SSTR3 (in words) (SSTR3; binding data, listed as DOTA conjugate of SEQ ID NO: 1): did not interfere with the binding affinity and selectivity of SEQ ID NO: 1
- Hill coefficient (nH) (SSTR3; hSSTR-3): 1.15
- IC50 (hSSTR-4): > 1 µM
- Ki (hSSTR-4): > 1 µM
- Hill coefficient (nH) (hSSTR-4; hSSTR-4): 1.14
- % Activity: Inhibition of Control Specific Binding (NMDA): 10%
- % Activity: Inhibition of Control Specific Binding [2]: −10%
- % Activity: Inhibition of Control Specific Binding (Na+ channel (site 2)): 3%
- % Activity: Inhibition of Control Specific Binding (AR(h)): −9%
- % Activity: Inhibition of Control Specific Binding (KV channel): −5%
- inhibition at 1 µM (MAO-A): 3%
- % Activity: Inhibition of Control Specific Binding (BZD (central)): −7%
